# Data as given in ChEMBL document CHEMBL5620355, “Discovery of intracellular self-assembly protein degraders driven by tumor-specific activatable bioorthogonal reaction” (Eur J Med Chem, 2023).
# Calls of active or inactive are those of the source. The rule behind the calls is not given here.
# Assays:
# U-87 MG [1] = experiment: Antiproliferative activity against human U87 cells incubated for 48 hrs in presence of (2S,4R)-1-((S)-2-(5-azidopentanamido)-3,3-dimethylbutanoyl)-4-hydroxy-N-(4-(4-methylthiazol-5-yl)benzyl)pyrrolidine-2-carboxamide by MTT assay; type: functional, cell-based, U-87MG ATCC
# U-87 MG [2] = experiment: (§1) Induction of apoptosis in human U87 cells assessed as necrotic cells at 1 uM incubated for 48 hrs in presence of (2S,4R)-1-((S)-2-(5-azidopentanamido)-3,3-dimethylbutanoyl)-4-hydroxy-N-(4-(4-methylthiazol-5-yl)benzyl)pyrrolidine-2-carboxamide by Annexin V-FLTC/PI staining based flow cytometry (reference value: 0.60 %); type: functional, U-87MG ATCC
# U-87 MG [3] = experiment: as §1, with “at 5” for “at 1”; type: functional, U-87MG ATCC
# HEK293 = experiment: Cytotoxicity against HEK293 cells at high concentration incubated for 48 hrs in presence of (2S,4R)-1-((S)-2-(5-azidopentanamido)-3,3-dimethylbutanoyl)-4-hydroxy-N-(4-(4-methylthiazol-5-yl)benzyl)pyrrolidine-2-carboxamide by MTT assay; type: toxicity, cell-based; details: human, hek293, 48 h
# [4] = target: Vascular endothelial growth factor receptor 2 (Homo sapiens) (UniProt P35968); experiment: Induction of VEGFR2 degradation in human U87 cells at 10 uM incubated for 48 hrs in presence of 4-azido-N-(2-(2,6-dioxopiperidin-3-yl)-1,3-dioxoisoindolin-4-yl)butanamide by Western blot analysis; type: cell-based
# U-87 MG [5] = experiment: as §1, with “as late apoptotic” for “as necrotic”, “at 10” for “at 1”, “value: 3.71” for “value: 0.60”; type: functional, U-87MG ATCC
# U-87 MG [6] = experiment: as §1, with “as viable” for “as necrotic”, “at 5” for “at 1”, “value: 86.74” for “value: 0.60”; type: functional, U-87MG ATCC; details: read-out: Activity
# U-87 MG [7] = experiment: Antiproliferative activity against human U87 cells incubated for 48 hrs in presence of 4-azido-N-(2-(2,6-dioxopiperidin-3-yl)-1,3-dioxoisoindolin-4-yl)butanamide by MTT assay; type: functional, cell-based, U-87MG ATCC
# [8] = Stability of compound in DMEM medium by HPLC analysis; type: physicochemical
# [9] = target: Platelet-derived growth factor receptor beta (Homo sapiens) (UniProt P09619); experiment: Induction of PDGFR-beta degradation in human U87 cells at 10 uM incubated for 48 hrs by Western blot analysis; type: cell-based
# U-87 MG [10] = experiment: Induction of apoptosis in human U87 cells assessed as viable cells at 10 uM incubated for 48 hrs in presence of 4-(4-(3-(4-chloro-3-(trifluoromethyl)phenyl)ureido)phenoxy)-N-(prop-2-yn-1-yl)picolinamide by Annexin V-FLTC/PI staining based flow cytometry (reference value: 86.74 %); type: functional, U-87MG ATCC; details: read-out: Activity
# U-87 MG [11] = experiment: Induction of apoptosis in human U87 cells assessed as late apoptotic cells at 5 uM incubated for 48 hrs in presence of 4-(4-(3-(4-chloro-3-(trifluoromethyl)phenyl)ureido)phenoxy)-N-(prop-2-yn-1-yl)picolinamide by Annexin V-FLTC/PI staining based flow cytometry (reference value: 3.71 %); type: functional, U-87MG ATCC
# U-87 MG [12] = experiment: Induction of apoptosis in human U87 cells assessed as viable cells at 5 uM incubated for 48 hrs in presence of 4-(4-(3-(4-chloro-3-(trifluoromethyl)phenyl)ureido)phenoxy)-N-(prop-2-yn-1-yl)picolinamide by Annexin V-FLTC/PI staining based flow cytometry (reference value: 86.74 %); type: functional, U-87MG ATCC; details: read-out: Activity
# U-87 MG [13] = experiment: Induction of apoptosis in human U87 cells assessed as necrotic cells at 10 uM incubated for 48 hrs in presence of 4-(4-(3-(4-chloro-3-(trifluoromethyl)phenyl)ureido)phenoxy)-N-(prop-2-yn-1-yl)picolinamide by Annexin V-FLTC/PI staining based flow cytometry (reference value: 0.60 %); type: functional, U-87MG ATCC
# [14] = target: T1, Ephrin type-B receptor 4 (Homo sapiens) (UniProt P54760); experiment: Induction of EphB4 degradation in human U87 cells at 10 uM incubated for 48 hrs by Western blot analysis; type: cell-based
# T1 sequence (whole entry): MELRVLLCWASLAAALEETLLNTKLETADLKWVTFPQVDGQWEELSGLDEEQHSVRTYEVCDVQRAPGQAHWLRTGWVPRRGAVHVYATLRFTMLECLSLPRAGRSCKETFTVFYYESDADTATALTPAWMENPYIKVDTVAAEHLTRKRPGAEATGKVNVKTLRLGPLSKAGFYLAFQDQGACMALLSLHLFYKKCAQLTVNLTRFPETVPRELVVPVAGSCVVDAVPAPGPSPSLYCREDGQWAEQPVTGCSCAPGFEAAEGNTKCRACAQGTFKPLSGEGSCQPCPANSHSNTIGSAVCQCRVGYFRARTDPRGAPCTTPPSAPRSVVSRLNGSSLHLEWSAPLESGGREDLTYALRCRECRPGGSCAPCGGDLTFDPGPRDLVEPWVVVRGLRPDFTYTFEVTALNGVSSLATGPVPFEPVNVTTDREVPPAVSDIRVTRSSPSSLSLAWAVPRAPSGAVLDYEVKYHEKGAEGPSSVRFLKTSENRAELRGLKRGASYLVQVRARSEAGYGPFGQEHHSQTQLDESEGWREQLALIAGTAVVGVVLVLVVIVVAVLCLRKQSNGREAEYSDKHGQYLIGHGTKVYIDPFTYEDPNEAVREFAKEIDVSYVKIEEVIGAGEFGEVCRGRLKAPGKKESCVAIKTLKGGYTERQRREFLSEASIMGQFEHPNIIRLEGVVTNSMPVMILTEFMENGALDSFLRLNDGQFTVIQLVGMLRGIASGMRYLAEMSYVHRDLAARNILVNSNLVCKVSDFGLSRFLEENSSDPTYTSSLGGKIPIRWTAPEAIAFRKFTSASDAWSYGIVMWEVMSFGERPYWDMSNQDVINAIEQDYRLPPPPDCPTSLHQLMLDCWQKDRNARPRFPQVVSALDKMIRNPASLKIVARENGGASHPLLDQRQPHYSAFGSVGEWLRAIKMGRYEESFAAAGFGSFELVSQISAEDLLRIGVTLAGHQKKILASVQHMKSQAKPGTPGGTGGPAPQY
# U-87 MG [15] = experiment: Induction of apoptosis in human U87 cells assessed as necrotic cells at 0.1 uM incubated for 48 hrs in presence of 4-(4-(3-(4-chloro-3-(trifluoromethyl)phenyl)ureido)phenoxy)-N-(prop-2-yn-1-yl)picolinamide by Annexin V-FLTC/PI staining based flow cytometry (reference value: 0.60 %); type: functional, U-87MG ATCC
# [16] = target: T1, Ephrin type-B receptor 4 (Homo sapiens); experiment: Induction of EphB4 degradation in human U87 cells at 10 uM incubated for 48 hrs in presence of 4-(4-(3-(4-chloro-3-(trifluoromethyl)phenyl)ureido)phenoxy)-N-(prop-2-yn-1-yl)picolinamide by Western blot analysis; type: cell-based
# U-87 MG [17] = experiment: Induction of apoptosis in human U87 cells assessed as necrotic cells at 1 uM incubated for 48 hrs in presence of 4-(4-(3-(4-chloro-3-(trifluoromethyl)phenyl)ureido)phenoxy)-N-(prop-2-yn-1-yl)picolinamide by Annexin V-FLTC/PI staining based flow cytometry (reference value: 0.60 %); type: functional, U-87MG ATCC
# Sequence of Platelet-derived growth factor receptor beta (Homo sapiens) (P09619 whole entry): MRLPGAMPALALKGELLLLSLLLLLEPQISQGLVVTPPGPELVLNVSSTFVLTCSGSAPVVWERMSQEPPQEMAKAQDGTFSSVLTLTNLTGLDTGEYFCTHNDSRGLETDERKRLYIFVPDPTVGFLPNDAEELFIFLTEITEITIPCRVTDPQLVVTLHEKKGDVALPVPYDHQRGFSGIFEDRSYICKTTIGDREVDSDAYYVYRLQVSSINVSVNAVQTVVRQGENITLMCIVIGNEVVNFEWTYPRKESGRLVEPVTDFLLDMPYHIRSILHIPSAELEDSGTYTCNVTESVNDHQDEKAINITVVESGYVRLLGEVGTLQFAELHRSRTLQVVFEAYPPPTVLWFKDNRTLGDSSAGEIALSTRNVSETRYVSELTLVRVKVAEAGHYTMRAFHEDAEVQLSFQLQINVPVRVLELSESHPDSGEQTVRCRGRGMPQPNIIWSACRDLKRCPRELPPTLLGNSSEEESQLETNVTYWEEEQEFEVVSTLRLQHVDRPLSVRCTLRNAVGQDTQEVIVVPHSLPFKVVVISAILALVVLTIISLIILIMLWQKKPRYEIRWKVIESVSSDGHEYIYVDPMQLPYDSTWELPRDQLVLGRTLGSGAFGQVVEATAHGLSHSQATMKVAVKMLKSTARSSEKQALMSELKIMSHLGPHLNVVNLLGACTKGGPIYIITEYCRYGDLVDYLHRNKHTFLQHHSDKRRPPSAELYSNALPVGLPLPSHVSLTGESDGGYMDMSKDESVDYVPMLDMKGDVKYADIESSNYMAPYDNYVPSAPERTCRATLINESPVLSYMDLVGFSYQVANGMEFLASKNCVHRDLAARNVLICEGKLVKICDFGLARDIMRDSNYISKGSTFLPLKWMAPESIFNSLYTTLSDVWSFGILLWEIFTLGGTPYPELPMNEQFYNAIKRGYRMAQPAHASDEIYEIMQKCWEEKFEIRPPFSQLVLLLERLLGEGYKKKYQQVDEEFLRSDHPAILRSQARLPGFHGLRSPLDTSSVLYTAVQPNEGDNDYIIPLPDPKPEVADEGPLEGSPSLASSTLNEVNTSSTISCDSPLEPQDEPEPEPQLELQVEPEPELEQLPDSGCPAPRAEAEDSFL
# Sequence of Vascular endothelial growth factor receptor 2 (Homo sapiens) (P35968 whole entry): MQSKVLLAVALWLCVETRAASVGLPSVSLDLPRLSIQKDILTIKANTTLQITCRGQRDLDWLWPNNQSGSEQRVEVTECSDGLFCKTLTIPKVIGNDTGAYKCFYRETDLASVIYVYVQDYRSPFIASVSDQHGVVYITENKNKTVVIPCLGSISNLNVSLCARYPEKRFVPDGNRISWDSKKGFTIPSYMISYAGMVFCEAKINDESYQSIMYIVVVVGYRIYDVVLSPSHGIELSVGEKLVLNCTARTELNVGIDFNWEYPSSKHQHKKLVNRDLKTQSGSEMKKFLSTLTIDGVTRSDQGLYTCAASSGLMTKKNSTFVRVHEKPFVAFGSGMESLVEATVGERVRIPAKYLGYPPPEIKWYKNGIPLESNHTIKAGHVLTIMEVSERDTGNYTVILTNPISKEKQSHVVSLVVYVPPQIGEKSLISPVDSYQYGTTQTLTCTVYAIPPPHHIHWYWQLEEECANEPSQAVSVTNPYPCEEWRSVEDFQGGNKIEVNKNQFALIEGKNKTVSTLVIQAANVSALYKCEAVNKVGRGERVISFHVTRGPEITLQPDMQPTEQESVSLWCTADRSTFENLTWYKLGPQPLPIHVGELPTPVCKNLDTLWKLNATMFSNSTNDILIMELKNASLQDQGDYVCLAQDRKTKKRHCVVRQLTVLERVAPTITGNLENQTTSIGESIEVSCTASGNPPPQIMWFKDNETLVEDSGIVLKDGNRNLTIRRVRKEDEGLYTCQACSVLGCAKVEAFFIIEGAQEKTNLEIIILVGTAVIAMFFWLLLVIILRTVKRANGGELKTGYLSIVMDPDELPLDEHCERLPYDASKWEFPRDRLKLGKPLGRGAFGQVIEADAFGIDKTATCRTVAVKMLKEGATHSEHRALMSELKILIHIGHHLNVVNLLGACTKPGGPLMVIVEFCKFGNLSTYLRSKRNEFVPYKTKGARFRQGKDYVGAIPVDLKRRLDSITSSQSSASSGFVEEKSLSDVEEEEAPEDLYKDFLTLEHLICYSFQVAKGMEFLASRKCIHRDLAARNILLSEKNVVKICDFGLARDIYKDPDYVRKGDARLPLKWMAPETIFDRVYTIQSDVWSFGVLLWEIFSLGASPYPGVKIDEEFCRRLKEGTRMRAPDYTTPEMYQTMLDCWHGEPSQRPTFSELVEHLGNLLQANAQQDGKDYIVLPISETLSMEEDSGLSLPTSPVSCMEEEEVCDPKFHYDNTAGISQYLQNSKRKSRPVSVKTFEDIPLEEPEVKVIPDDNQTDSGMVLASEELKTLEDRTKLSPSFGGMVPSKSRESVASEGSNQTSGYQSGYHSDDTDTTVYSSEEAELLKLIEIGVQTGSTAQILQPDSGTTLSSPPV
IC50 (U-87 MG [1]) [µM],Activity [4],IC50 (U-87 MG [7]) [µM],Stability [8],Activity [9],Activity [14],Activity [16],SMILES,Activity (U-87 MG [2]) [%],Activity (U-87 MG [3]) [%],Activity (HEK293),Activity (U-87 MG [5]) [%],viability at 5 µM (U-87 MG [6]) [%],viability at 10 µM (U-87 MG [10]) [%],Activity (U-87 MG [11]) [%],viability at 5 µM (U-87 MG [12]) [%],Activity (U-87 MG [13]) [%],Activity (U-87 MG [15]) [%],Activity (U-87 MG [17]) [%]
16,Active,5.68,–,–,–,–,C#CCNC(=O)c1cc(Oc2ccc(NC(=O)Nc3ccc(Cl)c(C(F)(F)F)c3)cc2)ccn1,1.26,25.22,Toxic,72.58,1.48,–,–,–,–,–,–
–,–,–,Unstable,Active,Active,Active,[N-]=[N+]=NCCCC(=O)Nc1cccc2c1C(=O)N(C1CCC(=O)NC1=O)C2=O (stereo not drawn),–,–,–,–,–,1.74,73.25,1.48,25.6,1.02,1.26
